Test results taken from publication PMC8617031, “Development of a BCL-xL and BCL-2 dual degrader with improved anti-leukemic activity,” (Nature Communications, 2021).
Values joined by “and” are separate entries in the source; they are usually repeats but may differ in a detail not shown here. Equal entries are not always repeated.

Experiments:
Type in all cases: cell-based, human
[1] = test system: BCL-2/PROTAC/VCB ternary complex (HiBit-BCL-2, HaloTag-VHL); test: NanoBRET intracellular ternary complex formation in 293T cells, BCL-2; conditions: for nanoBRET ratio (610/450, background-subtracted), Ave, Bcl-2: Ave of Read2 and Read3; for nanoBRET ratio (610/450, background-subtracted), Ave, Bcl-2 / nanoBRET ratio (610/450, background-subtracted), Read2, Bcl-2 / nanoBRET ratio (610/450, background-subtracted), Read3, Bcl-2: triplicate wells
Method in brief: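 293T cells were transfected with HiBit-BCL-xL or HiBit-BCL-2 plus HaloTag-VHL and incubated overnight with or without HaloTag NanoBRET 618 ligand in 4% FBS Opti-MEM. Serially diluted compounds were applied for 6 h at 37 °C. mBRET ratio from donor emission (450/50 nm) and acceptor emission (610 nm longpass) after Nano-Glo substrate.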

[2] = test system: Flag-BCL-2 WT or mutants; test: Polyubiquitination assay (Flag IP, HA-Ub blot), BCL-2; conditions: 293T cells, MG132 10 µM pretreatment, 753b 1 uM, 5 h
Text: K16-only, K20-only, and K87-only represent that all the surface lysines on BCL-xL are mutated to arginines except K16, K20, and K87, respectively. Representative immunoblots of Flag-BCL-xL WT and mutants are shown in the top panel. […] K17R and K22R represents that K17 and K22 on BCL-2 are respectively mutated to arginine; K17/22R means both K17 and K22 on BCL-2 are mutated to arginine. Representative immunoblots of Flag-BCL-2 WT and mutants are shown in the top panel. The quantification of the relative Flag-BCL-xL or Flag-BCL-2 protein content in the immunoblots is presented as mean values ± s.e.m. (n = 3 biologically independent experiments) in the bottom panel. […] After 36 h, cells were pre-treated with MG132 (10 µM) for 2 h and then treated with or without 753b (0.1 µM for BCL-xL and 1 uM for BCL-2) for 5 h. The Flag-tagged proteins were immunoprecipitated (IP) and immunoblotted with HA or Flag antibody. The input results are shown in Supplementary Fig. 9. Data are a representative of two independent experiments. Source data are provided as a Source data file.
Proteins were extracted by using IP lysis buffer (Cat. No. 87788, Thermal Fisher Scientific) and IP was performed using Anti-FLAG M2 Magnetic Beads (Cat. No. M8823, Sigma-Aldrich) according to the manufacturer’s protocol. […]

[3] = Viability (MTS) of 293T cells; conditions: human
Method in brief: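 Adherent cells treated after overnight attachment, nine concentrations in triplicate. After 72 h, MTS/PMS added and incubated 4 h at 37 °C before absorbance at 490 nm. Background-subtracted viability expressed as percent of untreated controls and fitted by non-linear regression.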

[4] = 293T cell viability, MTS absorbance 490 as percent of untreated control, mean of three wells, mean of 3 wells, normalised to own plate
[5] = 293T cell viability, MTS absorbance 490 as percent of untreated control, single replicate well, replicate well, normalised to own plate
[6] = 293T cell viability, MTS absorbance 490 as percent of untreated control, single replicate well, 3 uM, replicate well, normalised to own plate

| Structure (SMILES) | nanoBRET ratio (610/450, background-subtracted), Ave, Bcl-2 ([1]; 0.004 uM) | nanoBRET ratio (610/450, background-subtracted), Read2, Bcl-2 ([1]; 0.004 uM) | nanoBRET ratio (610/450, background-subtracted), Read3, Bcl-2 ([1]; 0.004 uM) | nanoBRET ratio (610/450, background-subtracted), Ave, Bcl-2 ([1]; 0.012 uM) | nanoBRET ratio (610/450, background-subtracted), Read2, Bcl-2 ([1]; 0.012 uM) | nanoBRET ratio (610/450, background-subtracted), Read3, Bcl-2 ([1]; 0.012 uM) | nanoBRET ratio (610/450, background-subtracted), Ave, Bcl-2 ([1]; 0.111 uM) | nanoBRET ratio (610/450, background-subtracted), Read2, Bcl-2 ([1]; 0.111 uM) | nanoBRET ratio (610/450, background-subtracted), Read3, Bcl-2 ([1]; 0.111 uM) | nanoBRET ratio (610/450, background-subtracted), Ave, Bcl-2 ([1]; 0.333 uM) | nanoBRET ratio (610/450, background-subtracted), Read2, Bcl-2 ([1]; 0.333 uM) | nanoBRET ratio (610/450, background-subtracted), Read3, Bcl-2 ([1]; 0.333 uM) | nanoBRET ratio (610/450, background-subtracted), Ave, Bcl-2 ([1]; 1 uM) | nanoBRET ratio (610/450, background-subtracted), Read2, Bcl-2 ([1]; 1 uM) | nanoBRET ratio (610/450, background-subtracted), Read3, Bcl-2 ([1]; 1 uM) | nanoBRET ratio (610/450, background-subtracted), Ave, Bcl-2 ([1]; 3 uM) | nanoBRET ratio (610/450, background-subtracted), Read2, Bcl-2 ([1]; 3 uM) | nanoBRET ratio (610/450, background-subtracted), Read3, Bcl-2 ([1]; 3 uM) | viability at 72 h, 0.00137174 µM [3] | viability at 72 h, 0.00411523 µM [3] | other results |
| --- | --- | --- | --- | --- | --- | --- | --- | --- | --- | --- | --- | --- | --- | --- | --- | --- | --- | --- | --- | --- | --- |
| Cc1ncsc1-c1ccc([C@H](C)NC(=O)[C@@H]2C[C@@H](O)CN2C(=O)[C@@H](NC(=O)CCCCCCC(=O)N2CCN(C[C@@]3(C)CCC(c4ccc(Cl)cc4)=C(CN4CCN(c5ccc(C(=O)NS(=O)(=O)c6ccc(N[C@H](CCN7CCOCC7)CSc7ccccc7)c(S(=O)(=O)C(F)(F)F)c6)cc5)CC4)C3)CC2)C(C)(C)C)cc1 [753a] | 3.986 and 4.005 and 4.171 | 4.213 and 3.959 and 4.208 | 3.759 and 4.052 and 4.1349 | 3.935 and 4.221 and 4.234 | 4.374 and 4.4563 and 4.486 | 3.4969 and 3.9866 and 3.982 | 5.182 and 5.692 and 5.227 | 5.4197 and 6.174 and 5.638 | 4.944 and 5.21 and 4.816 | 5.936 and 5.165 and 5.723 | 6.144 and 5.244 and 5.817 | 5.728 and 5.085 and 5.6284 | 4.911 and 5.007 and 4.802 | 5.2892 and 5.222 and 5.13 | 4.533 and 4.7919 and 4.4737 | 5.075 and 4.7947 and 5.072 | 5.352 and 5.171 and 5.538 | 4.798 and 4.419 and 4.6068 |  |  |  |
| Cc1ncsc1-c1ccc([C@H](C)NC(=O)[C@@H]2C[C@@H](O)CN2C(=O)[C@@H](NC(=O)CCCCCCC(=O)N2CCN(C[C@]3(C)CCC(c4ccc(Cl)cc4)=C(CN4CCN(c5ccc(C(=O)NS(=O)(=O)c6ccc(N[C@H](CCN7CCOCC7)CSc7ccccc7)c(S(=O)(=O)C(F)(F)F)c6)cc5)CC4)C3)CC2)C(C)(C)C)cc1 [753b] | 4.377 and 3.959 and 4.565 | 4.539 and 4.475 and 4.818 | 4.215 and 3.442 and 4.311 | 5.266 and 5.391 and 5.383 | 5.627 and 5.5043 and 5.572 | 4.906 and 5.278 and 5.194 | 8.153 and 8.77 and 8.375 | 8.4844 and 9.173 and 8.444 | 7.821 and 8.367 and 8.306 | 10.2466 and 9.352 and 9.108 | 10.4847 and 9.4698 and 9.325 | 10.0085 and 9.234 and 8.89 | 9.221 and 9.808 and 9.597 | 8.91 and 9.99 and 9.879 | 9.531 and 9.627 and 9.314 | 10.0388 and 9.727 and 10.2545 | 10.3731 and 9.71 and 10.9724 | 9.704 and 9.745 and 9.537 |  |  | intracellular ternary complex formation with BCL-2 (in words) ([1]; NanoBRET, 293T cells, 6 h): much higher activity to induce the ternary complex formation with both BCL-xL and BCL-2 relative to 753a; polyubiquitination of BCL-2 WT and mutants (in words) [2]: induces polyubiquitination of WT and K22R BCL-2, but not K17R and K17/22R BCL-2 |
| CC1(C)CCC(c2ccc(Cl)cc2)=C(CN2CCN(c3ccc(C(=O)NS(=O)(=O)c4ccc(N[C@H](CCN5CCOCC5)CSc5ccccc5)c(S(=O)(=O)C(F)(F)F)c4)cc3)CC2)C1 [ABT263, navitoclax] |  |  |  |  |  |  |  |  |  |  |  |  |  |  |  |  |  |  | 96.2% | 94.4% | viability at 72 h, 0.037037 µM ([3]; 293T cell viability, MTS absorbance 490 as percent of untreated control, mean of three wells, 0.037037 uM, mean of 3 wells, normalised to own plate): 107%; viability at 72 h, 0.111111 µM ([3]; 293T cell viability, MTS absorbance 490 as percent of untreated control, mean of three wells, 0.111111 uM, mean of 3 wells, normalised to own plate): 113%; viability at 72 h, 0.333333 µM [3, 4]: 103%; viability at 72 h, 1 µM [3, 4]: 98.5%; viability at 72 h, 3 µM ([3]; 293T cell viability, MTS absorbance 490 as percent of untreated control, mean of three wells, 3 uM, mean of 3 wells, normalised to own plate): 61.1%; viability at 72 h, 0.333333 µM [3, 5]: 94.3%; viability at 72 h, 1 µM [3, 5]: 93.3%; viability at 72 h, 3 µM [3, 6]: 60.7% |
| Cc1ncsc1-c1ccc([C@H](C)NC(=O)[C@@H]2C[C@@H](O)CN2C(=O)[C@@H](NC(=O)CCCCCC(=O)N2CCN(CC[C@H](CSc3ccccc3)Nc3ccc(S(=O)(=O)NC(=O)c4ccc(N5CCN(CC6=C(c7ccc(Cl)cc7)CCC(C)(C)C6)CC5)cc4)cc3S(=O)(=O)C(F)(F)F)CC2)C(C)(C)C)cc1 [DT2216] |  |  |  |  |  |  |  |  |  |  |  |  |  |  |  |  |  |  | 106% | 104% | viability at 72 h, 0.037037 µM [3]: 106%; viability at 72 h, 0.111111 µM [3]: 110%; viability at 72 h, 3 µM [3]: 90.6%; viability at 72 h, 0.037037 µM ([3]; 293T cell viability, MTS absorbance 490 as percent of untreated control, single replicate well, 0.037037 uM, replicate well, normalised to own plate): 105%; viability at 72 h, 0.111111 µM ([3]; 293T cell viability, MTS absorbance 490 as percent of untreated control, single replicate well, 0.111111 uM, replicate well, normalised to own plate): 109%; viability at 72 h, 3 µM [3, 6]: 89.4% |
